Read-outs that look alike come from different tables or passages of the source.
How the values were obtained:
Format in all cases: in vivo
[1] = test system: velvetleaf (Abutilon theophrasti); assay: Test A pre-/postemergence greenhouse herbicide test, visual injury rating 0-100; details: Abutilon theophrasti, 240 h, 1000 g ai/ha, read-out: Plant response rating (0 to 100 scale), Velvetleaf
Outline: (§1)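 Seeds sown in loam soil–sand blend; preemergence directed soil spray and, simultaneously, postemergence spray on plants 2 to 10 cm tall at one- to two-leaf stage. Compounds formulated in non-phytotoxic solvent mixture with surfactant. Injury rated visually versus untreated controls after ~10 days in greenhouse.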

[2] = test system: large (Lg) crabgrass (Digitaria sanguinalis); assay: as above; details: Digitaria sanguinalis, 240 h, 1000 g ai/ha, read-out: Plant response rating (0 to 100 scale), Crabgrass, Large
Outline: as §1

[3] = test system: giant foxtail (Setaria faberii); assay: as above; details: Setaria faberi, 240 h, 1000 g ai/ha, read-out: Plant response rating (0 to 100 scale), Foxtail, Giant
Outline: as §1

[4] = test system: corn (Zea mays); assay: as above; details: Zea mays, 240 h, 1000 g ai/ha, read-out: Plant response rating (0 to 100 scale), Corn
Outline: as §1

[5] = test system: wheat (Triticum aestivum); assay: as above; details: Triticum aestivum, 240 h, 1000 g ai/ha, read-out: Plant response rating (0 to 100 scale), Wheat
Outline: as §1

[6] = test system: pigweed (Amaranthus retroflexus); assay: as above; details: Amaranthus retroflexus, 240 h, 1000 g ai/ha, read-out: Plant response rating (0 to 100 scale), Pigweed
Outline: as §1

[7] = test system: barnyardgrass (Echinochloa crus-galli); assay: as above; details: Echinochloa crus-galli, 240 h, 1000 g ai/ha, read-out: Plant response rating (0 to 100 scale), Barnyardgrass
Outline: as §1

[8] = test system: morningglory (Ipomoea spp.); assay: as above; details: Ipomoea, 240 h, 1000 g ai/ha, read-out: Plant response rating (0 to 100 scale), Morningglory
Outline: as §1

[9] = test system: soybean (Glycine max); assay: Test C pre-/postemergence greenhouse test, plant response rating 0-100; details: Glycine max; for plant injury at 62 g/ha: 62 g ai/ha; for plant injury at 125 g/ha: 125 g ai/ha; for plant injury at 250 g/ha: 250 g ai/ha
Outline: (§2)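 Seeds were sown in a loam soil–sand blend and sprayed preemergence with test chemicals in a non-phytotoxic solvent mixture containing surfactant; postemergence plants in peat/vermiculite medium were treated at 2–18 cm (1- to 4-leaf stage). After 13 to 15 days in the greenhouse, injury was rated visually against untreated controls.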

[10] = test system: giant foxtail (Setaria faberii); assay: as above; details: Setaria faberi; for pest or weed control at 31 g/ha: 31 g ai/ha; for pest or weed control at 62 g/ha: 62 g ai/ha; for pest or weed control at 125 g/ha: 125 g ai/ha; for pest or weed control at 250 g/ha: 250 g ai/ha
Outline: as §2

[11] = test system: Italian ryegrass (Lolium multiflorum); assay: as above; details: Lolium multiflorum; for pest or weed control at 62 g/ha: 62 g ai/ha; for pest or weed control at 125 g/ha: 125 g ai/ha; for pest or weed control at 250 g/ha: 250 g ai/ha
Outline: as §2

[12] = test system: kochia (Kochia scoparia); assay: Test C postemergence greenhouse test, plant response rating 0-100; details: Bassia scoparia, post-emergence; for pest or weed control at 62 g/ha: 62 g ai/ha; for pest or weed control at 125 g/ha: 125 g ai/ha
Outline: (§3)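 Scores run from 0, meaning no effect, to 100, meaning complete control, and come from visual comparison with untreated controls. Treatment was a postemergence application to plants 2–18 cm tall. Assessment followed 13 to 15 days of greenhouse growth.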

[13] = test system: chickweed (common chickweed, Stellaria media); assay: as above; details: Stellaria media, post-emergence; for pest or weed control at 31 g/ha: 31 g ai/ha; for pest or weed control at 62 g/ha: 62 g ai/ha; for pest or weed control at 125 g/ha: 125 g ai/ha
Outline: as §3

[14] = test system: wild oat (Avena fatua); assay: as above; details: Avena fatua, post-emergence; for pest or weed control at 62 g/ha: 62 g ai/ha; for pest or weed control at 125 g/ha: 125 g ai/ha
Outline: as §3

[15] = post-emergence, Postemergence, read-out: Plant response rating (0 to 100), Soybean
[16] = post-emergence, Postemergence, scale 0 to 100
[17] = pre-emergence, Preemergence, read-out: Plant response rating, Soybean
[18] = pre-emergence, Preemergence, 500 g ai/ha
[19] = post-emergence, Postemergence, read-out: Plant response rating (0 to 100), Foxtail, Giant
[20] = pre-emergence, Preemergence, read-out: Plant response rating, Foxtail, Giant
[21] = post-emergence, Postemergence, read-out: Plant response rating (0 to 100), Ryegrass, Italian
[22] = pre-emergence, Preemergence, read-out: Plant response rating, Ryegrass, Italian
[23] = post-emergence, Postemergence, 16 g ai/ha

Clc1cc(Cl)cc(-c2n[nH]cc2C(=NN2CCCC2)c2ccccc2)c1 [Compound 30, N-[[3-(3,5-dichlorophenyl)-1H-pyrazol-4-yl]phenylmethylene]-1-pyrrolidinamine]
40%: pest or weed control at 62 g/ha [12]
98%: pest or weed control at 250 g/ha ([12]; 250 g ai/ha, scale 0 to 100)
100%: pest or weed control at 1000 g/ha ([1]; post-emergence, Postemergence) | pest or weed control at 1000 g/ha ([6]; post-emergence, Postemergence) | pest or weed control at 31 g/ha [13] | pest or weed control at 62 g/ha [13] | pest or weed control at 125 g/ha [13] | pest or weed control at 250 g/ha ([13]; 250 g ai/ha, scale 0 to 100)
90%: pest or weed control at 1000 g/ha ([6]; pre-emergence, Preemergence)
85%: pest or weed control at 125 g/ha [12]
0%: pest or weed control at 1000 g/ha ([1]; pre-emergence, Preemergence) | pest or weed control at 1000 g/ha ([2]; post-emergence, Postemergence) | pest or weed control at 1000 g/ha ([2]; pre-emergence, Preemergence) | pest or weed control at 1000 g/ha ([3]; post-emergence, Postemergence) | pest or weed control at 1000 g/ha ([3]; pre-emergence, Preemergence) | plant injury at 1000 g/ha ([4]; post-emergence, Postemergence) | plant injury at 1000 g/ha ([4]; pre-emergence, Preemergence) | plant injury at 1000 g/ha ([5]; post-emergence, Postemergence) | plant injury at 1000 g/ha ([5]; pre-emergence, Preemergence) | pest or weed control at 1000 g/ha ([7]; post-emergence, Postemergence) | pest or weed control at 1000 g/ha ([7]; pre-emergence, Preemergence) | pest or weed control at 1000 g/ha ([8]; post-emergence, Postemergence) | pest or weed control at 1000 g/ha ([8]; pre-emergence, Preemergence) | plant injury at 62 g/ha [9, 15] | plant injury at 125 g/ha [9, 15] | plant injury at 250 g/ha [9, 16] | plant injury at 62 g/ha [9, 17] | plant injury at 125 g/ha [9, 17] | plant injury at 250 g/ha ([9]; pre-emergence, Preemergence) | plant injury at 500 g/ha [9, 18] | pest or weed control at 31 g/ha [10, 19] | pest or weed control at 62 g/ha [10, 19] | pest or weed control at 125 g/ha [10, 19] | pest or weed control at 250 g/ha [10, 16] | pest or weed control at 62 g/ha [10, 20] | pest or weed control at 125 g/ha [10, 20] | pest or weed control at 250 g/ha ([10]; pre-emergence, Preemergence) | pest or weed control at 500 g/ha [10, 18] | pest or weed control at 62 g/ha [11, 21] | pest or weed control at 125 g/ha [11, 21] | pest or weed control at 250 g/ha [11, 16] | pest or weed control at 62 g/ha [11, 22] | pest or weed control at 125 g/ha [11, 22] | pest or weed control at 250 g/ha ([11]; pre-emergence, Preemergence) | pest or weed control at 500 g/ha [11, 18] | pest or weed control at 62 g/ha [14] | pest or weed control at 125 g/ha [14] | pest or weed control at 250 g/ha ([14]; 250 g ai/ha, scale 0 to 100)

CCn1cc(C(=O)c2ccccc2)c(-c2cc(Cl)cc(Cl)c2)n1 [Compound 31, [3-(3,5-dichlorophenyl)-1-ethyl-1H-pyrazol-4-yl]phenylmethanone]
10%: plant injury at 1000 g/ha ([4]; post-emergence, Postemergence) | pest or weed control at 16 g/ha ([13]; 16 g ai/ha)
80%: pest or weed control at 125 g/ha [13]
90%: pest or weed control at 1000 g/ha ([1]; post-emergence, Postemergence)
20%: pest or weed control at 1000 g/ha ([7]; post-emergence, Postemergence)
70%: pest or weed control at 1000 g/ha ([1]; pre-emergence, Preemergence) | pest or weed control at 31 g/ha [13]
40%: pest or weed control at 62 g/ha [12] | pest or weed control at 125 g/ha [12]
0%: pest or weed control at 1000 g/ha ([2]; post-emergence, Postemergence) | pest or weed control at 1000 g/ha ([2]; pre-emergence, Preemergence) | pest or weed control at 1000 g/ha ([3]; post-emergence, Postemergence) | pest or weed control at 1000 g/ha ([3]; pre-emergence, Preemergence) | plant injury at 1000 g/ha ([4]; pre-emergence, Preemergence) | plant injury at 1000 g/ha ([5]; post-emergence, Postemergence) | plant injury at 1000 g/ha ([5]; pre-emergence, Preemergence) | pest or weed control at 1000 g/ha ([7]; pre-emergence, Preemergence) | pest or weed control at 1000 g/ha ([8]; post-emergence, Postemergence) | pest or weed control at 1000 g/ha ([8]; pre-emergence, Preemergence) | plant injury at 16 g/ha [9, 23] | plant injury at 62 g/ha [9, 15] | pest or weed control at 16 g/ha [11, 23] | pest or weed control at 62 g/ha [11, 21] | pest or weed control at 125 g/ha [11, 21] | pest or weed control at 16 g/ha ([14]; 16 g ai/ha) | pest or weed control at 62 g/ha [14] | pest or weed control at 125 g/ha [14]
5%: plant injury at 125 g/ha [9, 15] | pest or weed control at 16 g/ha [10, 23] | pest or weed control at 31 g/ha [10, 19] | pest or weed control at 62 g/ha [10, 19] | pest or weed control at 125 g/ha [10, 19] | pest or weed control at 16 g/ha ([12]; 16 g ai/ha)
100%: pest or weed control at 1000 g/ha ([6]; post-emergence, Postemergence) | pest or weed control at 1000 g/ha ([6]; pre-emergence, Preemergence)
75%: pest or weed control at 62 g/ha [13]

Reference: patent US10167262B2, “Herbicidal substituted 3-arylpyrazoles” (FMC CORPORATION, priority 2014, dated 2019)
